Source: US20250312352A1, “GLP-1R MODULATING COMPOUNDS” (Gilead Sciences, Inc., priority 2021, published 2025)

target: T1, GLP-1R (Homo sapiens, UniProt P43220); assay: GLP-1R activation cAMP assay (Assay 1 or Assay 2); type: cell-based; details: cAMP increase in CHO cells stably expressing GLP-1R; compounds run on one of the two cAMP assays
T1 construct: host or cells: CHO cells
Outline: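 CHO cells stably expressing human GLP-1R were incubated 1 h in HBSS/20 mM HEPES/0.1% BSA, then exposed to 10-point agonist dilutions for 30 min at 37 °C. cAMP increase was measured with an HTRF Gs dynamic kit; EC50 from sigmoidal fit of response versus log concentration.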

T1 sequence (P43220 24-463): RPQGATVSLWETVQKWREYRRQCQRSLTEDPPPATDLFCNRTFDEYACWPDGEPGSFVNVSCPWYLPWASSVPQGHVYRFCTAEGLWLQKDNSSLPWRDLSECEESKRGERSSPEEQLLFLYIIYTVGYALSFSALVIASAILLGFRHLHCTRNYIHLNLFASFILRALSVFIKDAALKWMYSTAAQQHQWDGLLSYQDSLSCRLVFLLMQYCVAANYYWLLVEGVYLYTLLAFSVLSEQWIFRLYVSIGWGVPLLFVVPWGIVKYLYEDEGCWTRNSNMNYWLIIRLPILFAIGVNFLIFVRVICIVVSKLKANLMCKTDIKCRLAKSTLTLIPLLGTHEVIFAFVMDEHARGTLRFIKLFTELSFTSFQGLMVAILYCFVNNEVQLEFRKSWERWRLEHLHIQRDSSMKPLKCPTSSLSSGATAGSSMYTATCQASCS

Row | Compound | EC50 [nM]
1 | CNC(=O)c1cc(Cl)c(COc2cccc(-c3cc(F)c(Cc4nc5c(F)cc(C(=O)O)cc5n4C[C@@H]4CCO4)cc3C)n2)cn1 [Example 394, (S)-2-(4-(6-((4-chloro-6-(methylcarbamoyl)pyridin-3-yl)methoxy)pyridin-2-yl)-2-fluoro-5-methylbenzyl)-4-fluoro-1-(oxetan-2-ylmethyl)-1H-benzo[d]imidazole-6-carboxylic acid] | 0.62
2 | COCCn1c(Cc2cc(F)c(-c3cccc(OCc4ccc(C#CC5COC5)cc4F)n3)cc2F)nc2ccc(C(=O)O)cc21 [Example 231, 2-[[2,5-difluoro-4-[6-[[2-fluoro-4-[2-(oxetan-3-yl)ethynyl]phenyl]methoxy]-2-pyridyl]phenyl]methyl]-3-(2-methoxyethyl)benzimidazole-5-carboxylic acid] | 1.51
3 | O=C(O)c1ccc2nc(Cc3cc(F)c(-c4cccc(OCc5cn6cc(Cl)ccc6n5)n4)cc3F)n(C[C@@H]3CCO3)c2c1 [Example 32, (S)-2-(4-(6-((6-chloroimidazo[1,2-a]pyridin-2-yl)methoxy)pyridin-2-yl)-2,5-difluorobenzyl)-1-(oxetan-2-ylmethyl)-1H-benzo[d]imidazole-6-carboxylic acid] | 0.79
4 | NC(=O)CNC(=O)c1ccc(COc2cccc(-c3cc(F)c(Cc4nc5ccc(C(=O)O)cc5n4C[C@@H]4CCO4)cc3F)n2)cn1 [Example 176, (S)-2-(4-(6-((6-((2-amino-2-oxoethyl)carbamoyl)pyridin-3-yl)methoxy)pyridin-2-yl)-2,5-difluorobenzyl)-1-(oxetan-2-ylmethyl)-1H-benzo[d]imidazole-6-carboxylic acid] | 2.19
5 | Cn1cc(C#Cc2cnc(COc3cccc(-c4cc(F)c(Cc5nc6ccc(C(=O)O)cc6n5C[C@@H]5CCO5)cc4F)n3)nc2)cn1 [Example 154, (S)-2-(2,5-difluoro-4-(6-((5-((1-methyl-1H-pyrazol-4-yl)ethynyl)pyrimidin-2-yl)methoxy)pyridin-2-yl)benzyl)-1-(oxetan-2-ylmethyl)-1H-benzo[d]imidazole-6-carboxylic acid] | 0.52
6 | Cc1nc(C#Cc2cnc(COc3cccc(-c4cc(F)c(Cc5nc6ccc(C(=O)O)cc6n5C[C@@H]5CCO5)cc4F)n3)c(F)c2)cs1 [Example 291, (S)-2-(2,5-difluoro-4-(6-((3-fluoro-5-((2-methylthiazol-4-yl)ethynyl)pyridin-2-yl)methoxy)pyridin-2-yl)benzyl)-1-(oxetan-2-ylmethyl)-1H-benzo[d]imidazole-6-carboxylic acid] | 0.689
7 | COCCn1c(Cc2cc(F)c(-c3cccc(OCc4ccc(-c5cnn(C6CCOCC6)c5)cc4F)n3)cc2F)nc2ccc(C(=O)O)cc21 [Example 226, 2-(2,5-difluoro-4-(6-((2-fluoro-4-(1-(tetrahydro-2H-pyran-4-yl)-1H-pyrazol-4-yl)benzyl)oxy)pyridin-2-yl)benzyl)-1-(2-methoxyethyl)-1H-benzo[d]imidazole-6-carboxylic acid] | 8.36
8 | O=C(O)c1ccc2nc(Cc3cc(F)c(-c4cccc(OCc5cc(C(F)(F)F)no5)n4)cc3F)n(C[C@@H]3CCO3)c2c1 [Example 60, (S)-2-(2,5-difluoro-4-(6-((3-(trifluoromethyl)isoxazol-5-yl)methoxy)pyridin-2-yl)benzyl)-1-(oxetan-2-ylmethyl)-1H-benzo[d]imidazole-6-carboxylic acid] | 1.44

Further lines, results first:

Row | EC50 [nM] | Compound
9 | 0.459 | CC1(COc2nnc(COc3cccc(-c4cc(F)c(Cc5nc6ccc(C(=O)O)cc6n5C[C@@H]5CCO5)cc4F)n3)s2)CC1 [Example 343, (S)-2-(2,5-difluoro-4-(6-((5-((1-methylcyclopropyl)methoxy)-1,3,4-thiadiazol-2-yl)methoxy)pyridin-2-yl)benzyl)-1-(oxetan-2-ylmethyl)-1H-benzo[d]imidazole-6-carboxylic acid]
10 | 28 | Cc1nc(COc2cccc(-c3cc(F)c(Cc4nc5ccc(C(=O)O)cc5n4C[C@@H]4CCO4)cc3F)n2)cn1C(F)F [Example 180, (S)-2-(4-(6-((1-(difluoromethyl)-2-methyl-1H-imidazol-4-yl)methoxy)pyridin-2-yl)-2,5-difluorobenzyl)-1-(oxetan-2-ylmethyl)-1H-benzo[d]imidazole-6-carboxylic acid]
11 | 0.772 | CC1(C)COCC1n1c(Cc2cc(F)c(-c3cccc(OCc4ncc(C(F)F)s4)n3)cc2F)nc2c(F)cc(C(=O)O)cc21 (stereo not drawn) [Example 341, 2-(4-(6-((5-(difluoromethyl)thiazol-2-yl)methoxy)pyridin-2-yl)-2,5-difluorobenzyl)-1-(4,4-dimethyltetrahydrofuran-3-yl)-4-fluoro-1H-benzo[d]imidazole-6-carboxylic acid]
12 | 1.9 | COc1nnc(COc2cccc(-c3cc(F)c(Cc4nc5ccc(C(=O)O)cc5n4CC4(CF)CC4)cc3F)n2)s1 [Example 272, 2-(2,5-difluoro-4-(6-((5-methoxy-1,3,4-thiadiazol-2-yl)methoxy)pyridin-2-yl)benzyl)-1-((1-(fluoromethyl)cyclopropyl)methyl)-1H-benzo[d]imidazole-6-carboxylic acid]
13 | 0.189 | CC1(C)COC[C@H]1n1c(Cc2cc(F)c(-c3ccc(F)c(OCc4ncc(C(F)(F)F)s4)n3)cc2F)nc2ccc(C(=O)O)cc21 [Example 415, (S)-2-(2,5-difluoro-4-(5-fluoro-6-((5-(trifluoromethyl)thiazol-2-yl)methoxy)pyridin-2-yl)benzyl)-1-(4,4-dimethyltetrahydrofuran-3-yl)-1H-benzo[d]imidazole-6-carboxylic acid]
14 | 0.11 | Cn1cc(C#Cc2cnc(COc3cccc(-c4cc(F)c(Cc5nc6ccc(C(=O)O)cc6n5C[C@@H]5CCO5)cc4F)n3)s2)cn1 [Example 114, (S)-2-(2,5-difluoro-4-(6-((5-((1-methyl-1H-pyrazol-4-yl)ethynyl)thiazol-2-yl)methoxy)pyridin-2-yl)benzyl)-1-(oxetan-2-ylmethyl)-1H-benzo[d]imidazole-6-carboxylic acid]
15 | 0.54 | O=C(O)c1ccc2nc(Cc3cc(F)c(-c4cccc(OCc5cc(C(F)(F)F)sn5)n4)cc3F)n(C[C@@H]3CCO3)c2c1 [Example 13, (S)-2-(2,5-difluoro-4-(6-((5-(trifluoromethyl)isothiazol-3-yl)methoxy)pyridin-2-yl)benzyl)-1-(oxetan-2-ylmethyl)-1H-benzo[d]imidazole-6-carboxylic acid]
16 | 0.57 | N#Cc1csc(COc2cccc(-c3cc(F)c(Cc4nc5ccc(C(=O)O)cc5n4C[C@@H]4CCO4)cc3F)n2)c1 [Example 130, (S)-2-(4-(6-((4-cyanothiophen-2-yl)methoxy)pyridin-2-yl)-2,5-difluorobenzyl)-1-(oxetan-2-ylmethyl)-1H-benzo[d]imidazole-6-carboxylic acid]
17 | 3.09 | O=C(O)c1ccc2nc(Cc3cc(F)c(-c4cccc(OCc5ccn(C6CC6)n5)n4)cc3F)n(C[C@@H]3CCO3)c2c1 [Example 6, (S)-2-(4-(6-((1-cyclopropyl-1H-pyrazol-3-yl)methoxy)pyridin-2-yl)-2,5-difluorobenzyl)-1-(oxetan-2-ylmethyl)-1H-benzo[d]imidazole-6-carboxylic acid]
18 | 0.583 | Cc1cc(Cc2nc3ccc(C(=O)O)cc3n2[C@@H]2COCC2(C)C)c(F)cc1-c1cccc(OCc2ncc(Cl)s2)n1 [Example 257, (S)-2-(4-(6-((5-chlorothiazol-2-yl)methoxy)pyridin-2-yl)-2-fluoro-5-methylbenzyl)-1-(4,4-dimethyltetrahydrofuran-3-yl)-1H-benzo[d]imidazole-6-carboxylic acid]
